Source: the supplement of paper PMC4862054

Experiments:
Conditions in all cases: incubation time: 72 h
BT-474 [1] = assay: normalised response (% of control), CellTiter-Glo; higher = more viable cells (100 = DMSO, 0 = benzethonium chloride kill control)
How it was run: (§1)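 The table gives the normalised signal for a single concentration in each entry. Breast cancer cell lines were seeded (20 µl suspension) into 384-well plates holding compound at 5 concentrations in 10-fold steps over a compound-specific 10,000-fold range and incubated 72 h, then read for CellTox Green fluorescence (485/520 nm) and CellTiter-Glo luminescence. Normalisation on each plate used 0.1 % DMSO (100) and a positive kill control (0).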

BT-549 [2] = assay: as above
How it was run: as §1

CAL-120 [3] = assay: as above
How it was run: as §1

CAL-148 [4] = assay: as above
How it was run: as §1

CAL-51 [5] = assay: as above
How it was run: as §1

CAL-85-1 [6] = assay: as above
How it was run: as §1

DU-4475 [7] = assay: as above
How it was run: as §1

HCC1143 [8] = assay: as above
How it was run: as §1

HCC1599 [9] = assay: as above
How it was run: as §1

HCC1937 [10] = assay: as above
How it was run: as §1

HDQ-P1 [11] = assay: as above
How it was run: as §1

Hs578T [12] = assay: as above
How it was run: as §1

MCF-10A = assay: as above
How it was run: as §1

MDA-MB-231 [13] = assay: as above
How it was run: as §1

MDA-MB-436 [14] = assay: as above
How it was run: as §1

MDA-MB-453 [15] = assay: as above
How it was run: as §1

MDA-MB-468 [16] = assay: as above
How it was run: as §1

MFM-223 [17] = assay: as above
How it was run: as §1

SK-BR-3 [18] = assay: as above
How it was run: as §1

BT-474 [19] = assay: normalised viability (% of control), CellTiter-Blue; higher = more viable cells (100 = DMSO, 0 = benzethonium chloride kill control)
How it was run: (§2)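 After 72 h on compound-loaded 384-well plates, breast cancer cell lines received 2.5 µl CellTiter-Blue reagent for 2 h at 37 °C. Fluorescence at 560/590 nm was scaled per plate so that vehicle was 100 and a positive kill control was 0. The value stands for normalised viability at a single listed concentration of the series.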

BT-549 [20] = assay: as above
How it was run: as §2

CAL-120 [21] = assay: as above
How it was run: as §2

CAL-148 [22] = assay: as above
How it was run: as §2

CAL-51 [23] = assay: as above
How it was run: as §2

CAL-85-1 [24] = assay: as above
How it was run: as §2

DU-4475 [25] = assay: as above
How it was run: as §2

HCC1143 [26] = assay: as above
How it was run: as §2

HCC1599 [27] = assay: as above
How it was run: as §2

HCC1937 [28] = assay: as above
How it was run: as §2

HDQ-P1 [29] = assay: as above
How it was run: as §2

Hs578T [30] = assay: as above
How it was run: as §2

MDA-MB-231 [31] = assay: as above
How it was run: as §2

MDA-MB-436 [32] = assay: as above
How it was run: as §2

MDA-MB-453 [33] = assay: as above
How it was run: as §2

MDA-MB-468 [34] = assay: as above
How it was run: as §2

MFM-223 [35] = assay: as above
How it was run: as §2

SK-BR-3 [36] = assay: as above
How it was run: as §2

SMILES	normalised response (BT-474 [1]) [%]	normalised response (BT-549 [2]) [%]	normalised response (CAL-120 [3]) [%]	normalised response (CAL-148 [4]) [%]	normalised response (CAL-51 [5]) [%]	normalised response (CAL-85-1 [6]) [%]	normalised response (DU-4475 [7]) [%]	normalised response (HCC1143 [8]) [%]	normalised response (HCC1599 [9]) [%]	normalised response (HCC1937 [10]) [%]	normalised response (HDQ-P1 [11]) [%]	normalised response (Hs578T [12]) [%]	normalised response (MCF-10A) [%]	normalised response (MDA-MB-231 [13]) [%]	normalised response (MDA-MB-436 [14]) [%]	normalised response (MDA-MB-453 [15]) [%]	normalised response (MDA-MB-468 [16]) [%]	normalised response (MFM-223 [17]) [%]	normalised response (SK-BR-3 [18]) [%]	normalised viability (BT-474 [19]) [%]	normalised viability (BT-549 [20]) [%]	normalised viability (CAL-120 [21]) [%]	normalised viability (CAL-148 [22]) [%]	normalised viability (CAL-51 [23]) [%]	normalised viability (CAL-85-1 [24]) [%]	normalised viability (DU-4475 [25]) [%]	normalised viability (HCC1143 [26]) [%]	normalised viability (HCC1599 [27]) [%]	normalised viability (HCC1937 [28]) [%]	normalised viability (HDQ-P1 [29]) [%]	normalised viability (Hs578T [30]) [%]	normalised viability (MDA-MB-231 [31]) [%]	normalised viability (MDA-MB-436 [32]) [%]	normalised viability (MDA-MB-453 [33]) [%]	normalised viability (MDA-MB-468 [34]) [%]	normalised viability (MFM-223 [35]) [%]	normalised viability (SK-BR-3 [36]) [%]
CC(C)C[C@H](NC(=O)[C@@H](COC(C)(C)C)NC(=O)[C@H](Cc1ccc(O)cc1)NC(=O)[C@H](CO)NC(=O)[C@H](Cc1c[nH]c2ccccc12)NC(=O)[C@H](Cc1cnc[nH]1)NC(=O)[C@@H]1CCC(=O)N1)C(=O)N[C@@H](CCCNC(=N)N)C(=O)N1CCC[C@H]1C(=O)NNC(N)=O [Goserelin] (1 nM)	99.2	105	99.6	84.5	122	96.4	95.1	96.7	96	92.7	97.3	96.1	94.8	103	102	108	101	96.7	96.8	82.1	93.1	104	109	110	87.7	99.3	94.3	114	86.5	111	106	103	102	102	91.7	96	93.3
CO[C@@H]1[C@H](N(C)C(=O)c2ccccc2)C[C@H]2O[C@]1(C)n1c3ccccc3c3c4c(c5c6ccccc6n2c5c31)C(=O)NC4 [Midostaurin] (1 nM)	97.3	101	97.2	103	104	104	94	101	109	93.5	91.2	96.8	93.4	107	83	92.5	106	100	102	99.7	104	113	119	96.4	112	100	129	94.2	132	108	104	95.3	98.2	94.3	99.5	108	109
